Legend:
[1] = system: Single Olfactory Cells Responsive to Volatiles Emanating from a Crushed Cotton Square; test: Single-cell electrophysiology: action potentials from single olfactory cells; type: cell-based, Anthonomus grandis; settings: volatiles emanating from 1 μg of odorant; cell responsive to crushed cotton square
Excerpt: Single-cell recording techniques are described in detail elswhere [Dickens, Mitt. Schweiz. Entomol. Ges. 52: 203 (1979); Dickens et al., J. Chem. Ecol. 10: 583 (1984)]. In brief, microelectrodes used for recordings were constructed from 50.8 μm diameter tungsten wire electrolytically sharpened to a tip of 1-2 μm. The recording electrode was positioned under optical control (150-200 X) with a Leitz high-power micromanipulator near either the base of one of the three sensory bands encircling the club, or the base of an individual sensillum just distal to each sensory band region. The ground electrode was inserted in either the rostrum or distal end of the scape. Action potentials were amplified and conditioned by a Grass P-15 preamplifier and Tektronix 5A22N amplifier prior to visualization on a Tektronix 5223 digitizing oscilloscope. The signal then passed through a Teac R51-D data recorder for recording on cassette tapes prior to visualization on a Tektronix 5111 analog oscilloscope. Data were photographed from the analog oscilloscope with a Tektronix C-5C oscilloscope camera. Trains of action potentials were counted visually.
Upon obtaining a single cell preparation, odorous stimuli were presented every 3 min. […] The first two stimuli tested were volatiles emanating from 1 μg of grandlure, followed by volatiles emanating from a crushed cotton square. These two stimuli served to determine whether the cell was activated by the attractive pheromone of the boll weevil and/or volatiles emanating from its food source.

female C. capitata = test: Wind tunnel assay with female Mediterranean fruit flies; type: in vivo, Ceratitis capitata; settings: laboratory flight tunnel
Procedure: Flies were assayed in a rectangular glass wind tunnel (90 cm×90 cm×280 cm; flow rate=20 cm/sec) using laboratory-reared 5- to 7-day-old female C. capitata. The odor from 100 male C. capitata (30-50% calling) was obtained, and split through “Teflon” tubing to a secondary container containing the green leaf odor [either 100 μL of a 0.05% mixture in paraffin oil of trans-2-hexen-1-ol, 1-hexanol, cis-3-hexen-1-ol, trans-2-hexenal, and hexanal at a ratio of 158:100:63:24:11 (=glv, green leaf volatiles); or 100 μL of a 10% solution in silicon oil of trans-2-hexenal alone]. The odors were released into the wind tunnel via “Teflon” tubing to […] yellow plastic spheres [McInnis, J. Econ. Entomol. (in press)] with multiple holes to allow odors to emanate. Fifty flies were released 200 cm downwind from the source spheres, and both the number of flies on the spheres at a given time, and total number of landings by the flies were recorded during a 30-min test period. The test with the green leaf volatile blend was replicated five times; the test with trans-2-hexenal was replicated six times.

[2] = Gas chromatographic analyses of the aldehyde released in the field; settings: field conditions in which it was released
Boll Weevils [3] = test: Competitive field test with released weevils, four trap array; type: in vivo, Anthonomus grandis; settings: 1.0 mg of the compound
Excerpt: The second series of experiments involved an array of four traps. […] The two treatments being tested simultaneously in this competitive arrangement were placed alternately in the traps, i.e., the two traps baited with the same treatment were located diagonally from each other. Odorants diluted in hexane were released from glass capillaries placed in small vials in a container in each trap. […] Traps were then immediately baited. In each test, traps were checked and insects were removed at 1530 hrs and 1700 hrs on the day of release, and before 0900 hrs the next day (the time at which the test was terminated) in order to remove those insects which might have responded prior to darkness on the day of release.

Boll Weevils [4] = test: Competitive field test with released weevils, triangular trap array; type: in vivo, Anthonomus grandis; settings: for Mean Trap Capture: three replicates; for activity alone in competition with the other treatments: triangular array, 100 mg alone
Procedure: Two series of field tests were performed involving released boll weevils, in which grandlure was placed in competition with grandlure + the synergist. In the first series of experiments, a triangular array of traps was used. One trap was placed at each corner of a 20 m equilateral triangle (total of three traps). The three treatments released in this triangular array of traps were: 1) grandlure 3 mg; 2) grandlure 3 mg+synergist 100 mg; and 3) synergist 100 mg. The three synergists tested in these experiments were: trans-2-hexen-1-ol, 1-hexanol, and cis-3-hexen-1-ol. Cigarette filters were used to release the experimental odorants. One hundred insets (50 males and 50 females) were released along a line 20 m from each side of the triangle (300 insects total) at ca. 1000 hrs prior to baiting of the traps at 1200 hrs. Traps were check and insects were removed at 1400 hrs, 1600 hrs, and 1800 hrs, the times at which the test was terminated.

Scolytus multistriatus = test: Field test with bark beetles, 4-wk, Orono, Me.; type: in vivo; settings: for captures of bark beetles in traps when released with multilure, relative to the pheromone alone: 10 mg each; for Mean % Trap Capture: hexanal 10 mg, 1-hexanol 10 mg, multilure, alone or combined, 4-wk test period
Procedure: Mean % trap captures were calculated from competitive field tests during a 4-wk test period on campus of the University of Maine, Orono, Me. Total number of S. multistriatus captured was 423. Multilure consisted of α-multistriatin, methyl heptanol, and cubebene as obtained commercially from Dewill Corp., Elmhurst, Ill. Both 1-hexanol and hexanal were released from cigarette filters after dilution in the […] described [McKibben, supra]. Mean weekly trap captures were compared by Duncan's multiple range test [Duncan, Biometrics 11: 1-42 (1955)].

[5] = grandlure 3 mg vs cis-3-hexen-1-ol 100 mg vs both
[6] = grandlure 3 mg vs 1-hexanol 100 mg vs both

Row | Compound | Response in impulses/initial 500 msec, Cell #1 [1] [impulses/initial 500 msec] | Response in impulses/initial 500 msec, Cell #2 [1] [impulses/initial 500 msec] | Response in impulses/initial 500 msec, Cell #3 [1] [impulses/initial 500 msec] | Response in impulses/initial 500 msec, Cell #4 [1] [impulses/initial 500 msec] | other results
1 | C=C1CC/C=C(\C)CC[C@@H]2[C@@H]1CC2(C)C [β-caryophyllene] | 2 | 2 | 0 | 1 | 
2 | O=Cc1ccccc1 [benzaldehyde] | 3 | 0 | 1 | 0 | 
3 | (−)-limonene [(-)-limonene] | 0 | 0 | 2 | 1 | 
4 | CCC/C=C/C=O [trans-2-hexenal] | 27 | 24 | 1 | 38 | response of female flies to male odor plus the green leaf odor relative to male odor alone (female C. capitata): enhanced response; degradation under field conditions [2]: in part been degraded; synergism with grandlure (0.8 mg) in competition with grandlure (0.8 mg) alone (Boll Weevils [3]): no significant difference
5 | C=CC(=C)CCC=C(C)C [myrcene] | 2 | 1 | 1 | 3 | 
6 | CC(C)=CCC/C(C)=C\CO [nerol] | 3 | 4 | 8 | 11 | 
7 | α-bisabolol | 3 | 12 | 3 | 2 | 
8 | CCCCCCCCC=O [nonanal] | 2 | 0 | 0 | 4 | 
9 | CC/C=C\CCO [cis-3-hexen-1-ol] |  |  |  |  | % Total (Boll Weevils [4]; [5]): 0%; Mean Trap Capture (Boll Weevils [4]; [5]): 0 B; activity alone in competition with the other treatments (Boll Weevils [4]): relatively inactive; synergism with grandlure (0.8 mg) in competition with grandlure (0.8 mg) alone (Boll Weevils [3]): effective synergists
10 | CCCCCCO [1-hexanol] | 11 | 30 | 42 |  | % Total (Boll Weevils [4]; [6]): 0%; Mean Trap Capture (Boll Weevils [4]; [6]): 0 A; activity alone in competition with the other treatments (Boll Weevils [4]): relatively inactive; captures of bark beetles in traps when released with multilure, relative to the pheromone alone (Scolytus multistriatus): increased; Mean % Trap Capture (Scolytus multistriatus): 0a %; synergism with grandlure (0.8 mg) in competition with grandlure (0.8 mg) alone (Boll Weevils [3]): effective synergists
11 | CC(C)=CCC[C@H](C)[C@@]1(O)CC=C(C)CC1 [β-bisabolol] | 3 | 3 | 5 | 2 | 
12 | CCCCCCC=O [heptanal] | 1 | 0 | 0 | 16 | 
13 | CC(C)=CCC/C(C)=C/CO [geraniol] | 1 | 3 | 5 | 0 | 
14 | CCC/C=C\CO [cis-2-hexen-1-ol] |  |  |  |  | synergism with grandlure (0.8 mg) in competition with grandlure (0.8 mg) alone (Boll Weevils [3]): no synergism
15 | C=CC(C)(O)CCC=C(C)C (stereo not shown) [linalool] | 3 | 2 | 1 | 11 | 
16 | CCCCCC=O [hexanal] | 16 | 13 |  | 27 | captures of bark beetles in traps when released with multilure, relative to the pheromone alone (Scolytus multistriatus): increased; Mean % Trap Capture (Scolytus multistriatus): 0.3a %
17 | CC1=CC[C@H]2C[C@@H]1C2(C)C [(-)-α-pinene, (−)-α-pinene] | 4 | 0 | 1 | 7 | 
18 | gossonerol | 3 |  |  | 12 | 

Reference: patent publication US6413508B1, “Green leaf volatiles as synergists for insect pheromones” (The United States of America as represented by the …, priority 1988, dated 2002)
